Experimental data reported in PubChem BioAssay (NCI).
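A five-concentration, 48-hour dose response in 96-well plates underlies each endpoint, interpolated linearly between surrounding concentrations. TGI is the concentration that stops growth completely.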

Assays:
Assay in all cases: DTP human tumour cell line panel, 48 h
[1] = tested on: 786-0 renal
[2] = tested on: A498 renal
[3] = tested on: A549 NSCLC
[4] = tested on: ACHN renal
[5] = tested on: CAKI-1 renal
[6] = tested on: CCRF-CEM leukemia
[7] = tested on: COLO 205 colon
[8] = tested on: DU-145 prostate
[9] = tested on: EKVX NSCLC
[10] = tested on: HCC-2998 colon
[11] = tested on: HCT-116 colon
[12] = tested on: HCT-15 colon
[13] = tested on: HL-60(TB) leukemia
[14] = tested on: HOP-62 NSCLC
[15] = tested on: HOP-92 NSCLC
[16] = tested on: HS 578T breast
[17] = tested on: HT29 colon
[18] = tested on: IGROV1 ovarian
[19] = tested on: K-562 leukemia
[20] = tested on: KM12 colon
[21] = tested on: LOX IMVI melanoma
[22] = tested on: M14 melanoma
[23] = tested on: MALME-3M melanoma
[24] = tested on: MCF7 breast
[25] = tested on: MDA-MB-231 breast
[26] = tested on: MDA-MB-435
[27] = tested on: MDA-N
[28] = tested on: MOLT-4 leukemia
[29] = tested on: NCI-H226 lung
[30] = tested on: NCI-H23 lung
[31] = tested on: NCI-H460 lung
[32] = tested on: NCI/ADR-RES ovarian
[33] = tested on: OVCAR-3 ovarian
[34] = tested on: OVCAR-4 ovarian
[35] = tested on: OVCAR-5 ovarian
[36] = tested on: OVCAR-8 ovarian
[37] = tested on: PC-3 prostate
[38] = tested on: RPMI-8226 leukemia
[39] = tested on: RXF 393 renal
[40] = tested on: SF-268 CNS
[41] = tested on: SF-295 CNS
[42] = tested on: SF-539 CNS
[43] = tested on: SK-MEL-2 melanoma
[44] = tested on: SK-MEL-28 melanoma
[45] = tested on: SK-OV-3 ovarian
[46] = tested on: SN12C renal
[47] = tested on: SNB-19 CNS
[48] = tested on: SNB-75 CNS
[49] = tested on: SR leukemia
[50] = tested on: SW-620 colon
[51] = tested on: T-47D breast
[52] = tested on: TK-10 renal
[53] = tested on: U251 CNS
[54] = tested on: UACC-257 melanoma
[55] = tested on: UACC-62 melanoma
[56] = tested on: UO-31 renal
[57] = tested on: SK-MEL-5 melanoma

## C=C(C)C1CC/C(C)=C/CCC2(C)OC2CC/C(CO)=C\C1O (configuration not stated)
[1]
  TGI: > 100 µM
[2]
  TGI: > 100 µM
[3]
  TGI: > 100 µM
[4]
  TGI: > 100 µM
[5]
  TGI: > 100 µM
[6]
  TGI: > 100 µM
[7]
  TGI: > 100 µM
[8]
  TGI: > 100 µM
[9]
  TGI: > 100 µM
[10]
  TGI: > 100 µM
[11]
  TGI: > 100 µM
[12]
  TGI: > 100 µM
[13]
  TGI: > 100 µM
[14]
  TGI: > 100 µM
[15]
  TGI: > 100 µM
[16]
  TGI: 53.5 µM
[17]
  TGI: > 100 µM
[18]
  TGI: > 100 µM
[19]
  TGI: > 100 µM
[20]
  TGI: > 100 µM
[21]
  TGI: > 100 µM
[22]
  TGI: > 100 µM
[23]
  TGI: > 100 µM
[24]
  TGI: > 100 µM
[25]
  TGI: > 100 µM
[26]
  TGI: > 100 µM
[27]
  TGI: > 100 µM
[28]
  TGI: > 100 µM
[29]
  TGI: > 100 µM
[30]
  TGI: > 100 µM
[31]
  TGI: > 100 µM
[32]
  TGI: > 100 µM
[33]
  TGI: > 100 µM
[34]
  TGI: > 100 µM
[35]
  TGI: > 100 µM
[36]
  TGI: > 100 µM
[37]
  TGI: > 100 µM
[38]
  TGI: > 100 µM
[39]
  TGI: > 100 µM
[40]
  TGI: > 100 µM
[41]
  TGI: > 100 µM
[42]
  TGI: > 100 µM
[43]
  TGI: > 100 µM
[44]
  TGI: > 100 µM
[45]
  TGI: > 100 µM
[46]
  TGI: > 100 µM
[47]
  TGI: > 100 µM
[48]
  TGI: > 100 µM
[49]
  TGI: > 100 µM
[50]
  TGI: > 100 µM
[51]
  TGI: > 100 µM
[52]
  TGI: > 100 µM
[53]
  TGI: > 100 µM
[54]
  TGI: > 100 µM
[55]
  TGI: > 100 µM
[56]
  TGI: > 100 µM

## CC(=O)OCC(C)C1=C(OC(C)=O)C(=O)C2(C)C/C=C(/C)CC/C=C(\C)CCC(OC(C)=O)C(C)CCC12 (configuration not stated)
[1]
  TGI: 28.1 µM
[4]
  TGI: 39.3 µM
[6]
  TGI: 40.9 µM
[7]
  TGI: 37.8 µM
[8]
  TGI: 36.7 µM
[10]
  TGI: 31.2 µM
[11]
  TGI: 36 µM
[12]
  TGI: 34 µM
[13]
  TGI: 27.5 µM
[14]
  TGI: 27.5 µM
[15]
  TGI: 20.3 µM
[16]
  TGI: 60 µM
[17]
  TGI: 33.5 µM
[18]
  TGI: 48.3 µM
[19]
  TGI: 33.4 µM
[20]
  TGI: 36.9 µM
[21]
  TGI: 35 µM
[22]
  TGI: 34.2 µM
[24]
  TGI: 38.2 µM
[25]
  TGI: 27.7 µM
[26]
  TGI: 38.2 µM
[27]
  TGI: 33.5 µM
[28]
  TGI: 27.9 µM
[31]
  TGI: 10.8 µM
[34]
  TGI: 82.3 µM
[35]
  TGI: 25.4 µM
[36]
  TGI: 44.9 µM
[37]
  TGI: 30.2 µM
[38]
  TGI: 35.3 µM
[40]
  TGI: 35 µM
[41]
  TGI: 31.3 µM
[42]
  TGI: 38.7 µM
[43]
  TGI: 30.6 µM
[44]
  TGI: 33.8 µM
[57]
  TGI: 30.2 µM
[46]
  TGI: 36.5 µM
[47]
  TGI: 43.9 µM
[48]
  TGI: > 100 µM
[49]
  TGI: 40.3 µM
[50]
  TGI: 40.7 µM
[51]
  TGI: 89 µM
[52]
  TGI: 39 µM
[53]
  TGI: 31.3 µM
[54]
  TGI: 35.8 µM
[55]
  TGI: 28 µM
[56]
  TGI: 31.2 µM
